Experiments:
Calu6 = assay: Cell proliferation assay (CellTiter-Glo); format: cell-based; details: Homo sapiens, Calu-6; NSCLC; 72 hours, 0.5% fetal bovine serum; read-out: antiproliferative activity IC50, Calu6
Experimental: (§1) Cell Proliferation Assay:
(§2) Cancer cell lines were plated at 5,000 to 10,000 per well in 96-well flat bottomed plates with various concentration of compounds. The cells were incubated with compounds for 72 hours in the presence of 0.5% of fetal bovine serum. Growth inhibition was accessed by adenosine triphosphate (ATP) content assay using Promega CellTiter-Glo kit. Promega CellTiter-Glo kit is an ATP monitoring system based on firefly luciferase. Briefly, 16 μl of mammalian cell lysis and substrate solution was added to 84 μl of culture medium per well to lyse the cells and stabilize the ATP. The mixture was shaken and incubated for 30 minutes and subsequently the luminescence was measured.

WiDr = assay: Cell proliferation assay (CellTiter-Glo); format: cell-based; details: Homo sapiens, Colon, 72 hours, 0.5% fetal bovine serum, read-out: antiproliferative activity IC50, WiDr
Experimental: as §1, §2

OPM-2 = assay: Cell proliferation assay (CellTiter-Glo); format: cell-based; details: Homo sapiens, Multiple Myeloma, 72 hours, 0.5% fetal bovine serum, read-out: antiproliferative activity IC50, OPM-2
Experimental: as §1, §2

[1] = target: T1, mTor serine/threonine protein kinase (Homo sapiens, UniProt P42345); assay: mTor kinase radioisotope assay; format: biochemical; details: 70 uM ATP, 40 minutes; read-out: m-TOR IC50
T1 construct: FLAG; made in house; host or cells: Baculovirus expression system in Sf21 cells
Experimental: (F) an In Vitro Assay which-Determines the Ability of a Test Compound to Inhibit mTor Serine/Threonine Protein Kinase.
The ability of compounds to inhibit mTor activity was assayed using standard radioisotope assay for kinase. Briefly, FLAG-tagged, recombinant full-length human mTor (GenBank accession No. NM_004958) was expressed using baculovirus expression system in Sf21 cells and purified using antibody affinity column. Purified enzyme was incubated with c-terminal fragment of p70S6K as it's substrate in the presence of ATP. p33 ATP tracers were included in the assay to monitor the enzyme activity. Final assay condition was with 50 mM HEPES pH 7.5, 1 mM EGTA, 0.01% Tween 20, 2 mg/ml substrate, 3 mM Manganese Chloride and 70 uM of ATP and was carried out at room temperature for 40 minutes. The reaction was then stopped by the addition of 3% phosphoric acid solution. 10 ul of the reaction was spotted onto a P30 filtermat and washed three times for 5 minutes in 75 mM phosphoric acid and once in methanol prior to drying and scintillation counting. Different concentrations of compounds were added to reaction to assess the activity of compounds to inhibit mTor kinase. IC50 was calculated using Prism software with sigmoidal dose-response curve fitting.

PI3Kα (p110α/p85α) = target: T2, PI3Kα (p110α/p85α) (Homo sapiens, UniProt P42336); assay: PI3Kα ADP-Glo assay; format: biochemical; details: 20 μM PIP2, 10 μM ATP, 30 minutes
T2 construct: GST (N); made in house; host or cells: Baculovirus-infected Sf9 cells
T2 sequence (P42336 whole entry): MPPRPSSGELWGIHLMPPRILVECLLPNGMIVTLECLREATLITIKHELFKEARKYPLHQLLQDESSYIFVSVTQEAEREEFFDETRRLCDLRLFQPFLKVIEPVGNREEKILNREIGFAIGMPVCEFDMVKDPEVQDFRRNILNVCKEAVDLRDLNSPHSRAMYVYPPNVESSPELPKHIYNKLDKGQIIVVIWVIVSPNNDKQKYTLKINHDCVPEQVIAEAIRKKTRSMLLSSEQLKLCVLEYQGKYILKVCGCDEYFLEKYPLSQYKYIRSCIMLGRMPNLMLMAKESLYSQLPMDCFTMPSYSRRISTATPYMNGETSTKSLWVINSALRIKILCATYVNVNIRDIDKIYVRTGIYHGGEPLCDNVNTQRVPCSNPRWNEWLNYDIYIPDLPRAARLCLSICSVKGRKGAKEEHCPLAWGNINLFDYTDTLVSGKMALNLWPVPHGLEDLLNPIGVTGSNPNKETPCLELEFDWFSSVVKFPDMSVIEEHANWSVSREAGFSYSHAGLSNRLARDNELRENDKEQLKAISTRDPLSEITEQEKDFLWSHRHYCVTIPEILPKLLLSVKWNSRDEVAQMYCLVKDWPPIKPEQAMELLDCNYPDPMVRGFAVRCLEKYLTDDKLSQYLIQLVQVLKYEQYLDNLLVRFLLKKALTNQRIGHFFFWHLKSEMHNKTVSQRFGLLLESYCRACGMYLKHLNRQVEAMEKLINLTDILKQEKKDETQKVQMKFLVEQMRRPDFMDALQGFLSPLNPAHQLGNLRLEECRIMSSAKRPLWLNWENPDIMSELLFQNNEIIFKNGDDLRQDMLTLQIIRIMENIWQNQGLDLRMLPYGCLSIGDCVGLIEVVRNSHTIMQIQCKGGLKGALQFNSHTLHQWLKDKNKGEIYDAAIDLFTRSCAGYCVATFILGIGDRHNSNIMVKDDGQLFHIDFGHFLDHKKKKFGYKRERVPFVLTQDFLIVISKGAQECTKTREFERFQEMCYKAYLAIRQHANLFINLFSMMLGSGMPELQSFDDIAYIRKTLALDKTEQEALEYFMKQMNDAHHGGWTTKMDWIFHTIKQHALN
T2 sequence (P27986 whole entry partner): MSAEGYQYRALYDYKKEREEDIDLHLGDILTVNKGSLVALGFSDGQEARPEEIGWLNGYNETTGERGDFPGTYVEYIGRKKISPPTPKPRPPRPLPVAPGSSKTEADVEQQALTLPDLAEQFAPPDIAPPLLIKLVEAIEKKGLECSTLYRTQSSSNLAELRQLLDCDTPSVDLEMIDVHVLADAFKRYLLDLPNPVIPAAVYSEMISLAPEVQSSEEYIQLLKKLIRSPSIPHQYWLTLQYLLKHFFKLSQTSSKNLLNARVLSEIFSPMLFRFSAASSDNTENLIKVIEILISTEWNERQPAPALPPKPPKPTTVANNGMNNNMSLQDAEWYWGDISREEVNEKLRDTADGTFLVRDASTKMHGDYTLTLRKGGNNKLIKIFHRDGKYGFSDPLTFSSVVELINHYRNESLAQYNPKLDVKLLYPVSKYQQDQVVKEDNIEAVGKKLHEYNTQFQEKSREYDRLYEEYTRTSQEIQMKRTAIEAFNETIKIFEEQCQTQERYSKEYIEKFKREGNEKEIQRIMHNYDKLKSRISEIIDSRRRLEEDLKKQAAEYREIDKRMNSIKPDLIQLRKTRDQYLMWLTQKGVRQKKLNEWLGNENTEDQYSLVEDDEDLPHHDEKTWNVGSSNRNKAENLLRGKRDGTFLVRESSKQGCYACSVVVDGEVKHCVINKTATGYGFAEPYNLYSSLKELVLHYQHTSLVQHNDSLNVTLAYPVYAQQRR
Summary of the method: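 Recombinant full-length human GST-p110α/His-p85α, co-expressed in Sf9 cells, was incubated 30 min at room temperature with 20 μM PIP2 and 10 μM ATP. The buffer was 50 mM HEPES pH 7.4, 150 mM NaCl, 5 mM MgCl2, 1 mM DTT, 3 µM orthovanadate and 0.5% DMSO. ADP formed was detected by ADP-Glo luminescence.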

[2] = test system: HDACs (HeLa cell nuclear extracts); assay: HDAC enzymatic activity, Biomol Color de Lys system; format: biochemical; details: 1 hour, 25° C.
Summary of the method: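 HeLa nuclear extract incubated with serially diluted compound and […] artificial substrate in 50 mM Tris/Cl pH 8.0, 137 mM NaCl, 2.7 mM KCl, 1 mM MgCl2. Run 1 h at 25 °C, stopped with developer. Fluorescence read (ex 350-380, em 440-460 nm); IC50 from sigmoidal dose-response fit.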

A549 = assay: Cell proliferation assay (CellTiter-Glo); format: cell-based; details: Homo sapiens, NSCLC, 72 hours, 0.5% fetal bovine serum, read-out: antiproliferative activity IC50, A549
Experimental: as §1, §2

CFPAC-1 = assay: Cell proliferation assay (CellTiter-Glo); format: cell-based; details: Homo sapiens, Pancreas, 72 hours, 0.5% fetal bovine serum, read-out: antiproliferative activity IC50, CFPAC-1
Experimental: as §1, §2

PANC-1 = assay: Cell proliferation assay (CellTiter-Glo); format: cell-based; details: Homo sapiens, Pancreas, 72 hours, 0.5% fetal bovine serum, read-out: antiproliferative activity IC50, PANC-1
Experimental: as §1, §2

CaPan2 = assay: Cell proliferation assay (CellTiter-Glo); format: cell-based; details: Homo sapiens, Capan-2; Pancreas; 72 hours, 0.5% fetal bovine serum; read-out: antiproliferative activity IC50, CaPan2
Experimental: as §1, §2

MDA-MB-231 = assay: Cell proliferation assay (CellTiter-Glo); format: cell-based; details: Homo sapiens, Breast, 72 hours, 0.5% fetal bovine serum, read-out: antiproliferative activity IC50, MDA-MB-231
Experimental: as §1, §2

SW1990 = assay: Cell proliferation assay (CellTiter-Glo); format: cell-based; details: Homo sapiens, Pancreas, 72 hours, 0.5% fetal bovine serum, read-out: antiproliferative activity IC50, SW1990
Experimental: as §1, §2

MiaPaca1 = assay: Cell proliferation assay (CellTiter-Glo); format: cell-based; details: Pancreas; 72 hours, 0.5% fetal bovine serum; read-out: antiproliferative activity IC50, MiaPaca1
Experimental: as §1, §2

HCT116 = assay: Cell proliferation assay (CellTiter-Glo); format: cell-based; details: Homo sapiens, HCT-116; Colon; 72 hours, 0.5% fetal bovine serum; read-out: antiproliferative activity IC50, HCT116
Experimental: as §1, §2

H2122 = assay: Cell proliferation assay (CellTiter-Glo); format: cell-based; details: Homo sapiens, NCI-H2122; NSCLC; 72 hours, 0.5% fetal bovine serum; read-out: antiproliferative activity IC50, H2122
Experimental: as §1, §2

H358 = assay: Cell proliferation assay (CellTiter-Glo); format: cell-based; details: Homo sapiens, NCI-H358; NSCLC; 72 hours, 0.5% fetal bovine serum; read-out: antiproliferative activity IC50, H358
Experimental: as §1, §2

H460 = assay: Cell proliferation assay (CellTiter-Glo); format: cell-based; details: Homo sapiens, NCI-H460; NSCLC; 72 hours, 0.5% fetal bovine serum; read-out: antiproliferative activity IC50, H460
Experimental: as §1, §2

H292 = assay: Cell proliferation assay (CellTiter-Glo); format: cell-based; details: Homo sapiens, NCI-H292; NSCLC; 72 hours, 0.5% fetal bovine serum; read-out: antiproliferative activity IC50, H292
Experimental: as §1, §2

melting point [°C]	IC50 (Calu6) [nM]	IC50 [1] [nM]	IC50 (PI3Kα (p110α/p85α)) [nM]	IC50 [2] [nM]	IC50 (A549) [nM]	IC50 (PANC-1) [nM]	IC50 (MDA-MB-231) [nM]	IC50 (SW1990) [nM]	IC50 (MiaPaca1) [nM]	IC50 (HCT116) [nM]	IC50 (H2122) [nM]	IC50 (H358) [nM]	IC50 (H460) [nM]	IC50 (H292) [nM]	SMILES	IC50 (WiDr) [nM]	IC50 (OPM-2) [nM]	IC50 (CFPAC-1) [nM]	IC50 (CaPan2) [nM]
175 to 181	10 to 100	< 100	< 100	< 100	–	–	–	–	–	–	–	–	–	–	CN(Cc1cc2nc(-c3ccc(N)nc3)nc(N3CCOCC3)c2s1)c1ncc(C(=O)NO)cn1 [Compound 110, 2-(((2-(6-aminopyridin-3-yl)-4-morpholinothieno[3,2-d]pyrimidin-6-yl)methyl)(methyl)amino)-N-hydroxypyrimidine-5-carboxamide]	10 to 100	< 10	–	–
175 to 181	10 to 100	< 100	< 100	< 100	10 to 100	–	–	–	–	–	–	–	–	–	CN(Cc1cc2nc(-c3cnc(N)nc3)nc(N3CCOCC3)c2s1)c1ncc(C(=O)NO)cn1 [Compound 115, 2-(((2-(2-aminopyrimidin-5-yl)-4-morpholinothieno[3,2-d]pyrimidin-6-yl)methyl)(methyl)amino)-N-hydroxypyrimidine-5-carboxamide]	100 to 1000	10 to 100	–	–
184 to 186	10 to 100	100 to 1000	< 100	< 100	–	100 to 1000	10 to 100	10 to 100	10 to 100	–	–	–	–	–	Cc1ncc(-c2nc(N3CCOCC3)c3sc(CN(C)c4ncc(C(=O)NO)cn4)cc3n2)cn1 [Compound 120, N-hydroxy-2-(methyl((2-(2-methylpyrimidin-5-yl)-4-morpholinothieno[3,2-d]pyrimidin-6-yl)methyl)amino)pyrimidine-5-carboxamide]	10 to 100	–	100 to 1000	100 to 1000
179 to 183	–	–	< 100	< 100	10 to 100	–	–	–	10 to 100	< 10	< 10	< 10	10 to 100	–	CN(Cc1cc2nc(-c3ccc(N)cc3Cl)nc(N3CCOCC3)c2s1)c1ncc(C(=O)NO)cn1 [Compound 284, 2-(((2-(4-Amino-2-chlorophenyl)-4-morpholinothieno[3,2-d]pyrimidin-6-yl)methyl)(methyl)amino)-N-hydroxypyrimidine-5-carboxamide]	10 to 100	–	–	–
148 to 152	–	–	< 100	< 100	10 to 100	–	–	–	< 10	< 10	< 10	< 10	10 to 100	< 10	CN(Cc1cc2nc(-c3cccc(OCCO)c3)nc(N3CCOCC3)c2s1)c1ncc(C(=O)NO)cn1 [Compound 289, 2-({2-[3-(2-Hydroxy-ethoxy)-phenyl]-4-morpholin-4-yl-thieno[3,2-d]pyrimidin-6-ylmethyl}-methyl-amino)-pyrimidine-5-carboxylic acid hydroxyamide]	< 10	–	–	–
250 to 255	–	< 100	< 100	< 100	100 to 1000	–	–	–	10 to 100	10 to 100	10 to 100	10 to 100	10 to 100	–	CN(Cc1cc2nc(-c3cc(O)ccc3F)nc(N3CCOCC3)c2s1)c1ncc(C(=O)NO)cn1 [Compound 292, 2-(((2-(2-Fluoro-5-hydroxyphenyl)-4-morpholinothieno[3,2-d]pyrimidin-6-yl)methyl)(methyl)amino)-N-hydroxypyrimidine-5-carboxamide]	10 to 100	–	–	–
–	–	100 to 1000	< 100	< 100	10 to 100	–	–	–	< 10	< 10	< 10	< 10	10 to 100	10 to 100	CC(O)c1cccc(-c2nc(N3CCOCC3)c3sc(CN(C)c4ncc(C(=O)NO)cn4)cc3n2)c1 (stereo not shown) [Compound 294, N-Hydroxy-2-(((2-(3-(1-hydroxyethyl)phenyl)-4-morpholinothieno[3,2-d]pyrimidin-6-yl)methyl)(methyl)amino)pyrimidine-5-carboxamide]	10 to 100	–	–	–
168 to 172	10 to 100	> 10000	100 to 1000	< 100	10 to 100	–	–	–	10 to 100	< 10	10 to 100	10 to 100	10 to 100	10 to 100	C[C@H](O)c1cccc(-c2nc(N3CCOCC3)c3sc(CN(C)c4ncc(C(=O)NO)cn4)cc3n2)c1 [Compound 296, (S)—N-Hydroxy-2-(((2-(3-(1-hydroxyethyl)phenyl)-4-morpholinothieno[3,2-d]pyrimidin-6-yl)methyl)(methyl)amino)pyrimidine-5-carboxamide]	< 10	–	–	–
215 to 218	–	–	< 100	< 100	100 to 1000	–	–	–	100 to 1000	100 to 1000	100 to 1000	100 to 1000	100 to 1000	100 to 1000	CNc1ccc(-c2nc(N3CCOCC3)c3sc(C(=O)NCC4CCN(c5ncc(C(=O)NO)cn5)CC4)cc3n2)cn1 [Compound 308, N-((1-(5-(Hydroxycarbamoyl)pyrimidin-2-yl)piperidin-4-yl)methyl)-2-(6-(methylamino)pyridin-3-yl)-4-morpholinothieno[3,2-d]pyrimidine-6-carboxamide]	100 to 1000	–	–	–

— patent US20130102595A1 (Curis, Inc., priority 2011, published 2013)
